The values below come from ChEMBL document CHEMBL3507680, “University of Dundee, Gates Library screen for HepG2 cell viability”.

SMILES strings stand for the structures.

A short description of this data set: Human HepG2 cell viability assay in 384 well format. The data set is classed as toxicity, cell-based. To be noted: HepG2 cells, read-out: Inhibition. Also on record: dose 125 nL, time 70.5 hour; cytotoxicity at 70.5 h: concentration not given beside the values.
For the molecule `CCc1noc(CN(CC)C(=O)c2ccc3ncsc3c2)n1`, the cytotoxicity at 70.5 h came out at 4.54%. In the case of `CS(=O)(=O)c1ccc(OCCNCc2cccc(F)c2)cc1`, the cytotoxicity at 70.5 h was -2.08%. With `COc1ccc(C(=O)N2CC(=O)N(CC3CC3)CC(O)C2)cc1` (stereo not drawn), the cytotoxicity at 70.5 h was -4%.

Consider `CC(C)N1CCC2(CCCN(C(=O)c3cncn3C)C2)CC1`, for which the cytotoxicity at 70.5 h was -12%. As to `COc1ccc(C2=CCN(C(=O)CN(C)Cc3ccco3)CC2)cc1`, the cytotoxicity at 70.5 h is -11.2%. In the case of `COCC(C)NCc1nc(-c2ccc(C)cc2)c(-c2ccccn2)[nH]1` (stereo not drawn) it was -1.81%; in that of `Fc1cccc(N2CCCC3(CN(Cc4ccncc4)CCO3)C2)c1` (stereo not drawn), -4.69%. Consider `COc1cc(N2C[C@@H](C)[C@](O)(C3CC3)C2)nc(N)n1`, for which the cytotoxicity at 70.5 h is -3.32%. Take `COCCNC(=O)c1ccc(C)c(-n2cccc2)c1`: the cytotoxicity at 70.5 h is -2.8%.

As for `Fc1cccc(CN2CCC(c3n[nH]c4ncccc34)CC2)c1F`, the cytotoxicity at 70.5 h was -9.75%. The figure for `COCC1CN(C(=O)Cc2cccs2)Cc2nnn(CC3CC3)c21` (stereo not drawn) is 2.3%; for `CCNC(=O)C1CCN(c2nc(-c3ccco3)nc3c2CCNCC3)C1` (stereo not drawn) it is -7.78%. The figure for `NC(=O)CN1CCC(C(=O)NCc2ccc3c(c2)OCCCO3)CC1` is -8.05%; for `CCC1(CC)Cc2ccccc2-c2nc(NCCO)[nH]c(=O)c21` it is -1.26%; for `CCN1CC2(CCN(C(=O)c3nc4cc(C)ccn4c3F)CC2)CC1=O` it is 24.7%. For the molecule `CC1CN(C(=O)NCc2cccc(C#N)c2)CCN1CC(F)(F)F` (stereo not drawn), the cytotoxicity at 70.5 h was -7.28%. Consider `COc1ccc(Nc2nc(N)c(C(C)=O)s2)cc1Cl`, for which the cytotoxicity at 70.5 h is -9.72%. With `O=C(NCC(F)(F)F)C1CSCN1S(=O)(=O)c1ccc(F)cc1Cl` (stereo not drawn), the cytotoxicity at 70.5 h is -10.4%. For the molecule `CN(C)C(=O)c1sc2ncccc2c1C1CNCCO1` (stereo not drawn), the cytotoxicity at 70.5 h was -6.3%. In the case of `COCCN1CCN(Cc2ccncc2)c2ncccc2C1` it was -11%; in that of `Cc1ccc(CCNC(=O)Cn2nc(C)n(Cc3ccccc3)c2=O)s1`, 3.12%; in that of `Cc1ccc(CC(=O)N2CCCC(c3cc(C)[nH]n3)C2)cn1` (stereo not drawn), -7.57%. As for `CN(C)c1ccc(NC(=O)c2cccc(N(C)C)c2)nc1`, the cytotoxicity at 70.5 h turned out to be 15.4%. As for `Cc1cc(C)nc(NC2CCOC3(CCCC3)C2)n1` (stereo not drawn), the cytotoxicity at 70.5 h worked out at 3.01%. Consider `Cn1cnnc1C1CCCN(c2nc3ccccc3o2)C1` (stereo not drawn), for which the cytotoxicity at 70.5 h was 0.708%. Take `Cc1cc(N2CCCC(c3nccnc3N(C)C)C2)ncn1` (stereo not drawn): the cytotoxicity at 70.5 h is -2.83%.

Turning to `Cc1cc(C)c2nc(CN3CCOC(CCO)C3)cc(O)c2c1` (stereo not drawn), the cytotoxicity at 70.5 h was -4.44%. As to `COCC(O)CNc1ccc(C#N)cc1C(F)(F)F` (stereo not drawn), the cytotoxicity at 70.5 h was -9.81%.

Consider `Cc1cc(NC2CCCN(Cc3ccc(F)cc3)C2)n2nc(C)cc2n1` (stereo not drawn), for which the cytotoxicity at 70.5 h is -0.0493%. Consider `COCCn1cc(C(=O)N2CCCC2c2ccccc2C)ccc1=O` (stereo not drawn), for which the cytotoxicity at 70.5 h is -7.56%.

Consider `Cc1ccc(OC2(C(=O)O)CCN(C(=O)c3ccoc3C)CC2)cn1`, for which the cytotoxicity at 70.5 h is -0.44%. Turning to `COCC1CC2(CCN(Cc3ccoc3)CC2)CN1C(C)C` (stereo not drawn), the cytotoxicity at 70.5 h is -9.47%. `CCCS(=O)(=O)N1CCOC2(CCCN(c3ncc(F)cn3)C2)C1` (stereo not drawn): the cytotoxicity at 70.5 h was -13.3%. On to `O=C(NCC1CCOCC1)c1cc(-c2cccnc2)c2cnccc2n1`, for which the cytotoxicity at 70.5 h was -8.58%. Take `Cn1cc(C(=O)NCC(Cc2cccc(F)c2)N2CCCCC2=O)nn1` (stereo not drawn): the cytotoxicity at 70.5 h is -14.8%.

Consider `COc1cc(C(=O)N(Cc2ccc(F)cc2)C2CC2)cc2c1OCCO2`, for which the cytotoxicity at 70.5 h came out at 17.8%. For the molecule `CN(C)C(=O)[C@@H]1C[C@@H]2CCN(Cc3nccs3)C[C@@H]2O1`, the cytotoxicity at 70.5 h was -6.01%. Take `CN(Cc1cn2c(n1)CN(Cc1ccsc1)CC2)Cc1ccco1`: the cytotoxicity at 70.5 h was -6.14%. In the case of `CC(=O)c1ccccc1-c1nc(CC2CCN(C)CC2)no1` it was 16.1%; in that of `O=C1CCCN1CCN1CCCC(c2ccn[nH]2)C1` (stereo not drawn), 27.7%; in that of `COCCNC(=O)[C@@]12CCO[C@@H]1CCN(Cc1scnc1C)C2`, -2.1%. For the molecule `Cc1cccc2c1OCCC2NCc1c(C)nn(C)c1N(C)C` (stereo not drawn), the cytotoxicity at 70.5 h was 35%.

For `CN(C)S(=O)(=O)N1CC[C@]2(C[C@@H](OCc3ccccn3)CO2)C1`, the cytotoxicity at 70.5 h is -1.04%. In the case of `O=C(c1ccc(Cl)cc1)N1CCCn2nnc(Cn3cccn3)c2C1` it was 1.05%; in that of `COc1ccc(C2CN(c3nc(C)cc(C)n3)CCN2C(C)=O)cc1` (stereo not drawn), -4.4%. As for `NC(=O)C1CCN(C(=O)CCn2ccc3cc(Br)ccc32)CC1`, the cytotoxicity at 70.5 h is -1.61%. The figure for `Cn1cc(CN2C[C@H](N3CCOCC3)[C@@H]3OCCC[C@@H]32)cn1` is -4.71%; for `CCOCc1ncn2c1CN(C(=O)Nc1ccccc1CC)CC2` it is 16.8%. Take `O=C1N(Cc2ccccc2F)CCCC12CCN(C1CCSCC1)C2` (stereo not drawn): the cytotoxicity at 70.5 h was -4.98%. As to `O=C(NCC(O)COc1ccccc1)Nc1nncs1` (stereo not drawn), the cytotoxicity at 70.5 h came to 21.4%.

For `CCS(=O)(=O)Cc1csc(-c2ccc(S(C)(=O)=O)cc2)n1`, the cytotoxicity at 70.5 h is -6.86%. As for `O=C(Nc1cccc(CN2CCOC2=O)c1)N1CCCC1`, the cytotoxicity at 70.5 h was -6.57%.

For `Cc1cccc(CN2C[C@@H]3CN(C(=O)C4CCOC4)C[C@@H]3C2=O)c1` (stereo partly drawn), the cytotoxicity at 70.5 h stood at 2.05%. The figure for `CC(C)CCNC(=O)C1CCCN1C(=O)Nc1cccc(F)c1` (stereo not drawn) is -6.59%; for `O=C(Cc1cccc(F)c1)N1CCc2ncnc(N3CCCC3)c2CC1` it is -1.93%; for `CN(Cc1ccncc1)C1COC2(CCN(Cc3cccs3)CC2)C1` (stereo not drawn) it is -12.7%. Consider `COc1ccc(-c2nc(C#N)c(N(C)C)o2)cc1S(=O)(=O)N1CCCC1`, for which the cytotoxicity at 70.5 h was found to be 14.1%.

In the case of `CN(Cc1ccccc1)CC(O)Cn1cnc2c(Cl)cc(Cl)cc2c1=O` (stereo not drawn), the cytotoxicity at 70.5 h was -9.03%.

On to `c1ccc2ncc(CC3CCNC3)cc2c1` (stereo not drawn), for which the cytotoxicity at 70.5 h was determined as 19.8%. As for `O=c1cnc2ccccc2n1CCCn1ccnc1`, the cytotoxicity at 70.5 h is -16.2%. In the case of `CS(=O)(=O)N1CC[C@@H]2[C@@H]1CCN2Cc1ccc2c(c1)OCO2` it was -0.795%; in that of `CCOC(=O)[C@@H]1[C@@H](c2ccccc2)CN2CCN(C(C)=O)C[C@H]12`, -4.08%. In the case of `Cc1cc(NC(=O)N2CCC[C@@H]2CO)nn1-c1ccccc1Cl`, the cytotoxicity at 70.5 h was -7.9%. In the case of `COCc1ncc(CN2CC[C@@](O)(COC)C(C)(C)C2)cn1` it was -18.6%; in that of `Cc1cnn(C2CCCN(C(=O)c3ccc(N4CCCC4)nc3)C2)c1` (stereo not drawn), -7.94%; in that of `O=C(NCC1(O)CCOC1)NCC1(c2ccccc2Cl)CC1` (stereo not drawn), -2.47%.

As to `CCN(CC)CCSc1nnc(N2CCN(c3ccccc3)CC2)s1`, the cytotoxicity at 70.5 h was -2.44%. For the molecule `CC(=O)N(C)CC(=O)Nc1ccc(C)cc1OCc1ccccc1`, the cytotoxicity at 70.5 h is -1.76%. In the case of `CS(=O)(=O)NC[C@@H]1OC[C@H]2CN(C(=O)c3ccc[nH]3)CC[C@H]21` it was 3.6%; in that of `CCC(C)(NC(=O)CCN1CCOC1=O)C(=O)OC` (stereo not drawn), 20.8%; in that of `CN1CCN(Cc2cccc(NCc3ncc[nH]3)c2)CC1`, 8%. With `CCOc1cc(C(=O)N2CC=C(c3ccc(O)cc3)CC2)ccn1`, the cytotoxicity at 70.5 h is -14.3%. The figure for `CC(C)c1nc(Cn2cncn2)n(-c2ccccn2)n1` is -4.77%; for `Cc1ccc(S(=O)(=O)NCC2CNCCOC2)cc1Cl` (stereo not drawn) it is -2.6%; for `CC(C)N1CCC(c2cccc(C(=O)N(C)C)n2)CC1` it is 24.4%. For `O=C(c1cccc2cn[nH]c12)N1CCCC1c1noc(C2CC2)n1` (stereo not drawn), the cytotoxicity at 70.5 h was -2.84%. `O=C(C1CCCC1)N1CCN(Cc2ccncc2)[C@@H]2CS(=O)(=O)C[C@@H]21`: the cytotoxicity at 70.5 h was -5.83%. In the case of `O=C(Cc1c[nH]c2ccccc12)N1CCN(C(=O)c2ccoc2)CC1` it was 1.6%; in that of `CCc1cnc(N2C[C@@H](NC(=O)c3cscn3)[C@H]3COC[C@H]32)nc1`, -11.1%; in that of `O=C(c1ccc(NCc2cccc(F)c2)cc1)N1CCCC1`, 1.69%.

Regarding `CC(C)c1n[nH]c(C2CN(Cc3ccno3)CCO2)n1` (stereo not drawn), the cytotoxicity at 70.5 h stood at 0.21%. Consider `CC(=O)N1CCCC(C(=O)NCc2noc(Cc3ccccc3)n2)C1` (stereo not drawn), for which the cytotoxicity at 70.5 h was -11.1%. `Cc1c(CS(C)(=O)=O)cccc1NCC1CCCCC1`: the cytotoxicity at 70.5 h worked out at 7.16%. The figure for `O=C(O)CCc1ccc(S(=O)(=O)Nc2cnn(CC(F)(F)F)c2)cc1` is -5.48%; for `CCOCC1CN(C(=O)Cc2ccsc2)Cc2ccnn2C1` (stereo not drawn) it is -6.83%.

As for `C[C@@H]1CN(C(=O)CSc2nncn2C)C[C@@]1(O)C1CC1`, the cytotoxicity at 70.5 h was -4.21%. With `O=C(NC1CC1)[C@@H]1CCO[C@@H]2CCN(C3CCCC3)C[C@H]21`, the cytotoxicity at 70.5 h was -0.698%.

On to `O=C(NCCCN1CCOCC1)c1ccn(COc2ccccc2)n1`, for which the cytotoxicity at 70.5 h was -7.55%. With `Cc1ccc(C(=O)NCC(C)Cn2cccn2)c(=O)[nH]1` (stereo not drawn), the cytotoxicity at 70.5 h was -3.38%. In the case of `CCS(=O)(=O)Nc1cnn(Cc2cccc(F)c2)c1`, the cytotoxicity at 70.5 h is -4.79%. Regarding `CN(C)c1ncccc1CNS(=O)(=O)c1c(F)cccc1F`, the cytotoxicity at 70.5 h was -8.75%. The figure for `CCc1nnsc1C(=O)N1CCCN(Cc2ccccc2)CC1` is -8.56%. On to `CCOC(=O)c1sc2ccsc2c1CNS(C)(=O)=O`, for which the cytotoxicity at 70.5 h was -3.52%. For the molecule `CC(=O)N1CCC(N2CC[C@H](c3nc4cc(F)ccc4o3)C2)CC1`, the cytotoxicity at 70.5 h stood at 0.135%. As to `CC(CC(F)(F)F)NCc1ccccc1-n1ccnc1` (stereo not drawn), the cytotoxicity at 70.5 h was -10.9%. For `Cc1cnc(C(=O)N2CCC3(CC2)C(=O)NCCN3CC(C)C)cn1`, the cytotoxicity at 70.5 h was -2.5%. Take `CC(=O)N1CCCN(C(=O)NCCCNS(C)(=O)=O)CC1`: the cytotoxicity at 70.5 h came out at 9.32%. Take `CN(Cc1ccncn1)c1nccc(CCC(F)(F)F)n1`: the cytotoxicity at 70.5 h is 23%.
